# Data: patent US11878975B2, “Substituted indole compounds useful as TLR inhibitors” (BRISTOL-MYERS SQUIBB COMPANY, priority 2017, dated 2024)
# Legend:
# Assay type in all cases: cell-based
# [1] = biological target: T1, human TLR7 (Homo sapiens, UniProt Q9NYK1); assay: TLR7 inhibition reporter assay (HEK-Blue cells, SEAP reporter, gardiquimod stimulation); details: HEK-Blue cells overexpressing human TLR7, SEAP reporter, gardiquimod 7.5 μM
# T1 construct: host or cells: HEK-Blue cells
# T1 sequence (Q9NYK1 27-1049): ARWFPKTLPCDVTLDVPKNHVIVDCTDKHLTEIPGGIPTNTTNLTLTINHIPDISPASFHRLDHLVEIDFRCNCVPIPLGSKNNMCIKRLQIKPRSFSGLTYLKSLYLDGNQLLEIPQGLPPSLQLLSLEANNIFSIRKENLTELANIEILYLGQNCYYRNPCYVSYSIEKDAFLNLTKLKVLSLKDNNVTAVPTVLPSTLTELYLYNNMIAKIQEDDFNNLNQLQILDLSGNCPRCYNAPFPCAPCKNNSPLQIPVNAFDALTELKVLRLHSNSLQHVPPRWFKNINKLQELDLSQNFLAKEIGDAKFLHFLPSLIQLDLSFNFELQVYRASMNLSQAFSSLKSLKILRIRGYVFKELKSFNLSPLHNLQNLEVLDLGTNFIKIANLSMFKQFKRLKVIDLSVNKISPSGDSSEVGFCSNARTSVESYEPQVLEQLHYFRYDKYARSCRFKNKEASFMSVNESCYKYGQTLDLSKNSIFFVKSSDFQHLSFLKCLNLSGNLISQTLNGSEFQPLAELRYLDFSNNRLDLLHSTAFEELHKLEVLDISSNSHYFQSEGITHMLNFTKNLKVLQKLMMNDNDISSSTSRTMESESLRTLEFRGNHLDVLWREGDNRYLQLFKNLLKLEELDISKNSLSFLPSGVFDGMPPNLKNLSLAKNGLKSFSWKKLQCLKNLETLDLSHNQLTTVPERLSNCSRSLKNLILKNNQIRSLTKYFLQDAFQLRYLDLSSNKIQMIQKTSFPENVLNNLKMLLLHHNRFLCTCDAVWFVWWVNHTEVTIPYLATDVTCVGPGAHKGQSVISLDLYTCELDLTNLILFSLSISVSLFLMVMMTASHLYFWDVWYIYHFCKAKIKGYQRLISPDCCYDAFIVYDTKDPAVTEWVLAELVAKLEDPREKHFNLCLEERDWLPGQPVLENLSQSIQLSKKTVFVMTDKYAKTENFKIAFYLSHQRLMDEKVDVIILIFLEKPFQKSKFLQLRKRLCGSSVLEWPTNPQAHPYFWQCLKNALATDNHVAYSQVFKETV
# Method in brief: (§1)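 HEK-Blue cells with NF-κB/AP-1-driven SEAP reporter, pre-treated 30 min at room temperature with compound (0.05 nM-50 μM). Stimulants: gardiquimod 7.5 μM (TLR7), R848 15.9 μM (TLR8) or ODN2006 5 nM (TLR9). SEAP measured after 22 h at 37° C.; percent inhibition versus agonist-plus-DMSO and known-inhibitor wells.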
# [2] = biological target: T2, human TLR8 (Homo sapiens, UniProt Q9NR97); assay: TLR8 inhibition reporter assay (HEK-Blue cells, SEAP reporter, R848 stimulation); details: HEK-Blue cells overexpressing human TLR8, SEAP reporter, R848 15.9 μM
# T2 construct: host or cells: HEK-Blue cells
# T2 sequence (Q9NR97 27-1041): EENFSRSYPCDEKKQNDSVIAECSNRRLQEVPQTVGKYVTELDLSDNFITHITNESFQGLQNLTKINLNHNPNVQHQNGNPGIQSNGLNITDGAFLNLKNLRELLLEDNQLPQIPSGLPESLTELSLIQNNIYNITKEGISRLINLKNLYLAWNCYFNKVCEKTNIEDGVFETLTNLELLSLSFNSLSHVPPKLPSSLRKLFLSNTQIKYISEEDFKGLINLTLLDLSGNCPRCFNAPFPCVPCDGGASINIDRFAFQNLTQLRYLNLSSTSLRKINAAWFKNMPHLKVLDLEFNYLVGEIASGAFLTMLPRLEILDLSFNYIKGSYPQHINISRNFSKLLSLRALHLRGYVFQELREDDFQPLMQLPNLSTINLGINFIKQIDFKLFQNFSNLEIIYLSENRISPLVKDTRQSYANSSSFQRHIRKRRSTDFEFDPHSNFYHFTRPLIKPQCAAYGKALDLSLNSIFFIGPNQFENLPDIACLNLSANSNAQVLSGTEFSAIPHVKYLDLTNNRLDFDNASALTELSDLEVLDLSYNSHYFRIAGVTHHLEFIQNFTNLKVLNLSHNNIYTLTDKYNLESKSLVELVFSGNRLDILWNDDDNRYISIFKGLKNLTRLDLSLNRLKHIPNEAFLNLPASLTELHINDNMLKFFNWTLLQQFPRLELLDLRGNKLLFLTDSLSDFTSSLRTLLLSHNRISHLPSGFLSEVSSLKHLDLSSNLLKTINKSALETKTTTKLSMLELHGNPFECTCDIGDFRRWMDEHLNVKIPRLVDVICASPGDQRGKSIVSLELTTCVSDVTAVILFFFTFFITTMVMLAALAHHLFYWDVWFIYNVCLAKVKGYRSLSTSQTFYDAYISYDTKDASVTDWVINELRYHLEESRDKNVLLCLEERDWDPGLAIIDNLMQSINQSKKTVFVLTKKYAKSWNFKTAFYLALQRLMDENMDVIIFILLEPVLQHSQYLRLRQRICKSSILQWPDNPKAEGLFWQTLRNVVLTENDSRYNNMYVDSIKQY
# Method in brief: as §1
# [3] = biological target: T3, human TLR9 (Homo sapiens, UniProt Q9NR96); assay: TLR9 inhibition reporter assay (HEK-Blue cells, SEAP reporter, ODN2006 stimulation); details: HEK-Blue cells overexpressing human TLR9, SEAP reporter, ODN2006 5 nM
# T3 construct: host or cells: HEK-Blue cells
# T3 sequence (Q9NR96 26-1032): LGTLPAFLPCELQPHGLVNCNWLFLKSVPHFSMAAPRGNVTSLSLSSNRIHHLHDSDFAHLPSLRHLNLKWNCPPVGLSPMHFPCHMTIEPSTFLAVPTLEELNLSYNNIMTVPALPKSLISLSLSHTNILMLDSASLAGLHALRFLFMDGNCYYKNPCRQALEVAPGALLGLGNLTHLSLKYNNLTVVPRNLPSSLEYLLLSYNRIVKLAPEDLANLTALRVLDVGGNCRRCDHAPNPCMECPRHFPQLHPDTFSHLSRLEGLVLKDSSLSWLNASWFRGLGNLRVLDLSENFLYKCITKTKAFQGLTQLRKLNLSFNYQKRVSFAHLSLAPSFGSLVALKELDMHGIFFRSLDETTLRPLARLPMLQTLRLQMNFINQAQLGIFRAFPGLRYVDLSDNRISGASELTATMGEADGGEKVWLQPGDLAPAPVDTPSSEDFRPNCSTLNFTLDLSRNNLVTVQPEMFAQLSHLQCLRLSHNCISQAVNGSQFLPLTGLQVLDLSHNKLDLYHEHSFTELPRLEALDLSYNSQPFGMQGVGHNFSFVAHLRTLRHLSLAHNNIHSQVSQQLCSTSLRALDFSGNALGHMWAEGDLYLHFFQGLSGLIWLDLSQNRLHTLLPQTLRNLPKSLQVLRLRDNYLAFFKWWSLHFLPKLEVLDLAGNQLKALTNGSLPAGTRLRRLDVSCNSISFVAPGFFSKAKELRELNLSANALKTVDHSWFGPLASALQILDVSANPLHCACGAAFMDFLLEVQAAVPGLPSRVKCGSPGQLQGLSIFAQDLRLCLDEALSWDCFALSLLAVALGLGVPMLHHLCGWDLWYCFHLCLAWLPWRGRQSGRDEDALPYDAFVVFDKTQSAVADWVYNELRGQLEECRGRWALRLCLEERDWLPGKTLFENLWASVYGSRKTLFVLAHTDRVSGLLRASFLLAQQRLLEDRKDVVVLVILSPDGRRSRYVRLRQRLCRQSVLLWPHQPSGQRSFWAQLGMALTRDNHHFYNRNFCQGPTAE
# Method in brief: as §1
IC50 [1],IC50 [2],IC50 [3],SMILES
18 nM,9.3 nM,883 nM,"Cc1cc(-c2[nH]c3ccc(CCN4CCOCC4)cc3c2C(C)C)cc(C)n1 [Example 393, 2-(2,6-dimethylpyridin-4-yl)-5-[2-(morpholin-4-yl)ethyl]-3-(propan-2-yl)-1H-indole]"
2560 nM,1080 nM,2590 nM,"CCc1c(-c2ccnc(C)c2)[nH]c2ccc(CN)cc12 [Example 394, [3-ethyl-2-(2-methylpyridin-4-yl)-1H-indol-5-yl]methanamine]"
11 nM,9.8 nM,1960 nM,"Cc1c(-c2[nH]c3ccc(CC4CNC4)cc3c2C(C)C)cn2ncnc2c1C [Example 399, 5-[(azetidin-3-yl)methyl]-2-{7,8-dimethyl-[1,2,4]triazolo[1,5-a]pyridin-6-yl}-3-(propan-2-yl)-1H-indole]"
18 nM,5.1 nM,2820 nM,Cc1c(-c2[nH]c3ccc(CC4CN(CC(=O)N(C)C)C4)cc3c2C(C)C)cn2ncnc2c1C [Example 400]
27 nM,86 nM,3430 nM,Cc1cc(-c2[nH]c3ccc(CCN4CCS(=O)(=O)CC4)cc3c2C(C)C)cc(C)n1 [Example 401]
9 nM,1.4 nM,13600 nM,Cc1cc(-c2[nH]c3ccc(CCN4CCC(F)CC4)cc3c2C(C)C)cn(C)c1=O [Example 407]

# The remaining lines, values behind:
SMILES,IC50 [1],IC50 [2],IC50 [3]
"CCc1c(-c2ccc(OC)c(OC)c2)[nH]c2ccc(CN3CCNCC3)cc12 [Example 390, 2-(3,4-dimethoxyphenyl)-3-ethyl-5-(piperazin-1-ylmethyl)-1H-indole]",138 nM,73 nM,5880 nM
CCc1c(-c2ccc(OC)c(OC)c2)[nH]c2ccc(CN3CC4CNCC4C3)cc12 (stereo not drawn) [Example 391],164 nM,354 nM,527 nM
"CCc1c(-c2ccc(OC)c(OC)c2)[nH]c2ccc(CN3CC4CN(C(C)C)CC4C3)cc12 (stereo not drawn) [Example 392, 2-(3,4-dimethoxyphenyl)-3-ethyl-5-{[5-(propan-2-yl)-octahydropyrrolo[3,4-c]pyrrol-2-yl]methyl}-1H-indole]",2390 nM,553 nM,1180 nM
"CCc1c(-c2ccnc(C)c2)[nH]c2ccc(CNC(=O)CCN(C)C)cc12 [Example 395, 3-(dimethylamino)-N-{[3-ethyl-2-(2-methylpyridin-4-yl)-1H-indol-5-yl]methyl}propanamide]",966 nM,182 nM,823 nM
"Cc1cc(-c2[nH]c3ccc(CC4CCCN4)cc3c2C(C)C)cn2ncnc12 (stereo not drawn) [Example 398, 2-{8-methyl-[1,2,4]triazolo[1,5-a]pyridin-6-yl}-3-(propan-2-yl)-5-[(pyrrolidin-2-yl)methyl]-1H-indole]",1 nM,3.5 nM,1580 nM
Cc1cc(-c2[nH]c3ccc(CCN4CCS(=O)(=O)CC4)cc3c2C(C)C)cn(C)c1=O [Example 402],108 nM,74 nM,> 50000 nM
Cc1cc(-c2[nH]c3ccc(CCN4CCOCC4)cc3c2C(C)C)cn(C)c1=O [Example 403],36 nM,7.5 nM,23000 nM
Cc1cc(-c2[nH]c3ccc(CCN4CCCC(F)(F)C4)cc3c2C(C)C)cn(C)c1=O [Example 404],50 nM,31 nM,> 50000 nM
Cc1cc(-c2[nH]c3ccc(CCN4CCCC4)cc3c2C(C)C)cn(C)c1=O [Example 405],35 nM,8.4 nM,13700 nM
Cc1cc(-c2[nH]c3ccc(CCN4CCCC(F)C4)cc3c2C(C)C)cn(C)c1=O (stereo not drawn) [Example 406],14 nM,3.2 nM,8810 nM
Cc1cc(-c2[nH]c3ccc(CCN4CC[C@H](F)C4)cc3c2C(C)C)cn(C)c1=O [Example 408],15 nM,2.3 nM,13000 nM
Cc1cc(-c2[nH]c3ccc(CCN4CCCCC4)cc3c2C(C)C)cn(C)c1=O [Example 409],23 nM,3 nM,15600 nM
